Where a SMILES comes first, the peptide text is derived from it. [ ]: non-standard residue; d: D form. The star is where a group is joined. Nva = CCC[C@H](N)C(=O)O; Cbz = O=C(OCc1ccccc1)*
Test system: Jurkat T cells overexpressing Bcl-2
Test: Western blot, fractionation, RT-PCR, immunostaining and IP in Bcl-2-overexpressing Jurkat T cells
Assay type: cell-based, human
Details: for cytoplasmic Bax-immunofluorescent signals: immunofluorescent staining
Method: FIGS. 7A-7H show proteasome inhibitor LLnV induces Bax accumulation, cytochrome c release and PARP cleavage in Bcl-2-overexpressing Jurkat T cells. (FIGS. 7A-7C) Jurkat T cells overexpressing Bcl-2 (0 h) were treated with 50 μM LLnV for up to 8 h, followed by preparation of cytosol and mitochondrial fractions. Both fractions were immunoblotted first by an antibody to cytochrome c (Cyto C, MW 17 kDa; FIG. 7A and FIG. 7C) and then reblotted by anti-cytochrome oxidase subunit II (COX, MW 26 kDa; FIG. 7B). Note: 20 μg protein from the cytosol, and 40 μg protein from the mitochondrial, preparation was used in each lane. (FIGS. 7D-7G) Whole cell extracts (70 μg per lane) of the above treated cells were immunoblotted with specific antibodies to PARP (FIG. 7D), Bax (clone N-20; FIG. E), Bcl-2 (FIG. 7F), or actin (FIG. 7G). Molecular masses of PARP, the PARP cleavage fragment (p85), Bax, Bcl-2 and actin are 113, 85, 21, 26 and 40 kDa, respectively. Positions of protein markers are indicated at right. (FIG. 7H) Bcl-2-expressing Jurkat cells (Control) were treated with 50 μM LLnV for 8 h, followed by RT-PCR. For the first-strand cDNA synthesis, 0.2 (lanes 1, 4), 0.6 (lanes 2, 5) and 1.8 μg (lanes 3, 6) of the total RNA were used. The positions of Bax (538 bp) and G3PDH mRNA (983 bp) are indicated. Lane M is DNA molecular weight marker.
FIGS. 8A-8D show proteasome inhibition accumulates Bax to mitochondria/cytoplasm and increases interaction between Bax and Bcl-2 proteins. Jurkat cells (0 h; FIG. 8A and FIG. 8B) or Jurkat cells overexpressing Bcl-2 (0 h; FIG. 8C and FIG. 8D) were treated by either 10 μM lactacystin (FIGS. 8A-8C), 50 μM LLnV (FIG. 8D), or 50 μM LLM (FIG. 8A and FIG. 8B) for the indicated hours. (FIG. 8A and FIG. 8B) Western blotting with antibodies to PARP and Bax were performed as described in FIG. 7. (FIG. 8C) Immunohistochemistry (see MATERIALS AND METHODS). Localization of Bax protein (green) and nuclei (red) are shown. (FIG. 8D) Bax immunoprecipitates, prepared by an agarose-conjugated N-20 Bax antibody, were immunoblotted first with the 6A7 Bax antibody (upper) and then reblotted with a Bcl-2 antibody (lower).
Cell Culture and Drug Treatment: Human breast cancer MCF-7 cells, Jurkat T cells, and Jurkat T cells stably transfected with pRcCMV vector containing a complete human bcl-2 cDNA (obtained from Dr. Hong-gang Wang, Moffitt Cancer Center & Research Institute) were grown in RPMI 1640 growth medium (An et al., 1998). Treatment of cell with a proteasome inhibitor was performed as described (An et al., 1998; Dou et al., 1999).
Western blot analysis and Immunoprecipitation: Whole cell extract (An et al., 1996), whole tissue extracts (Loda et al., 1997), and cytosol and mitochondria fractions (Fang et al., 1998) were prepared as described. The enhanced chemiluminescence Western blot assay was performed as described previously (An et al., 1996). To perform a coupled immunoprecipitation-Western blot assay, a whole cell or tissue extract (200 microg protein) was first precleared by incubating with protein A plus protein G agarose beads (Calbiochem) at 4° C. for 2 hours. The collected supernatant was then incubated for at least 3 hours with either […] of agarose beads conjugated with the N20 Bax antibody (Santa Cruz Biotech), or the 6A7 Bax antibody, followed by incubation with protein A/protein G beads at 4° C. overnight. The washed Bax immunoprecipitates were boiled in SDS sample buffer and used for Western blotting with antibodies to Bax, Bcl-2 or ubiquitin.
Immunocytochemistry and Reverse Transcriptase-Polymerase Chain Reaction (RT-PCR): Immunocytochemistry was performed with the rabbit polyclonal Bax antibody (N20) and an FITO-labeled goat anti-rabbit antibody (Southern Biotech.; Birmingham, Ala.), followed by counter-staining nuclei with propidium iodide (Sigma) (Bossy-Wetzel et al., 1998). To perform RT-PCR, total RNA was isolated from Jurkat T cells by an Advantage RT-for-PCR kit (Clontech; palo Alto, Calif.). […]

Row | SMILES | cytoplasmic Bax-immunofluorescent signals | level of cytosolic cytochrome c (50 μM LLnV, 6 to 8 hours) | level of Bax protein (Bax/p21) (50 μM LLnV, 1 hour or longer, Western blot) | Bax mRNA level (50 μM LLnV, 8 h, RT-PCR) | levels of Bax/p21 and Bax-bound Bcl-2 protein (50 μM LLnV, Bax immunoprecipitation-Western blot) | induction of apoptosis (PARP cleavage) (50 μM LLnV, up to 8 h) | levels of the overexpressed Bcl-2 protein (50 μM LLnV, up to 8 h)
1 | CC(=O)N[C@@H](CSC(=O)[C@]1([C@@H](O)C(C)C)NC(=O)[C@H](C)[C@@H]1O)C(=O)O [lactacystin] | markedly increased |  |  |  |  |  | 
2 | CCC[C@@H](C=O)NC(=O)[C@H](CC(C)C)NC(=O)[C@H](CC(C)C)NC(=O)OCc1ccccc1 [LLnV] (Cbz-Leu-Leu-[Nva]-aldehyde) | markedly increased | increased | increased | remained unchanged | significantly increased | cleavage of PARP | Little changes

Reference: patent US6692927B2, “Bax degradation involvement in tumor survival and progression” (University of South Florida, priority 2000, dated 2004)
